Laboratory results reported in PubChem BioAssay (NCI).
Where “and” joins values, the source holds several entries; their conditions need not be identical. Identical values can stand only once.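 These data come from cells grown in 96-well plates and exposed to compound for 48 hours at five concentrations. The concentration for 50% growth inhibition is given as GI50. TGI denotes the concentration required for complete inhibition of growth.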

Columns and labels:
Test in all cases: DTP human tumour cell line panel, 48 h
CAKI-1 renal = tested on: CAKI-1 renal
DLD-1 colon = tested on: DLD-1 colon
HCT-15 colon = tested on: HCT-15 colon
LOX IMVI melanoma = tested on: LOX IMVI melanoma
M14 melanoma = tested on: M14 melanoma
SF-268 CNS = tested on: SF-268 CNS
SK-MEL-28 melanoma = tested on: SK-MEL-28 melanoma
UACC-257 melanoma = tested on: UACC-257 melanoma
LXFL 529 NSCLC = tested on: LXFL 529 NSCLC
DU-145 prostate = tested on: DU-145 prostate

SMILES | TGI (CAKI-1 renal) | TGI (DLD-1 colon) | TGI (HCT-15 colon) | TGI (LOX IMVI melanoma) | TGI (M14 melanoma) | TGI (SF-268 CNS) | TGI (SK-MEL-28 melanoma) | TGI (UACC-257 melanoma) | TGI (LXFL 529 NSCLC) | GI50 (CAKI-1 renal) | GI50 (DU-145 prostate) | TGI (DU-145 prostate) | GI50 (HCT-15 colon) | GI50 (LOX IMVI melanoma) | GI50 (M14 melanoma) | GI50 (SF-268 CNS) | GI50 (SK-MEL-28 melanoma) | GI50 (UACC-257 melanoma) | GI50 (DLD-1 colon) | GI50 (LXFL 529 NSCLC)
Cc1cccc(CC(C)(C)C)c1NC(=O)C(=O)C(C(=O)c1ccc2ccccc2c1)C1OC(=O)c2ccccc21 (configuration not stated) | > 100 µM | 35.1 µM | 41.4 µM | 43.9 µM | > 100 µM | 30.6 µM | 18.8 µM | 26.2 µM | – | – | – | – | – | – | – | – | – | – | – | –
Cc1[nH]c(=O)nc(N/N=C/c2ccc(O)cc2)c1C(=O)Nc1ccc(Cl)cc1 | > 100 µM | > 100 µM | > 100 µM | – | > 100 µM | > 100 µM | > 100 µM | > 100 µM | > 100 µM | – | – | – | – | – | – | – | – | – | – | –
COc1cc(CC(=O)c2ccc3c(c2)OCO3)cc(OC)c1OC | > 100 µM | > 100 µM | > 100 µM | – | > 100 µM | > 100 µM | > 100 µM | > 100 µM | > 100 µM | – | – | – | – | – | – | – | – | – | – | –
Cc1cccc(N2C(=O)/C(=C/c3ccc(N(CCC#N)CCC#N)cc3C)N=C2c2cc([N+](=O)[O-])ccc2Cl)c1 | > 100 µM | > 100 µM | > 100 µM | – | > 100 µM | > 100 µM | > 100 µM | > 100 µM | > 100 µM | – | – | – | – | – | – | – | – | – | – | –
Cc1ns/c(=N\C(=S)N(C)C)n1C | > 100 µM | > 100 µM | > 100 µM | – | > 100 µM | > 100 µM | > 100 µM | > 100 µM | > 100 µM | – | – | – | – | – | – | – | – | – | – | –
CN1CCN(C(=S)SCN2C(=O)c3ccccc3S2(=O)=O)CC1 | > 100 µM | – | 99.1 µM | 36.9 µM | 22.8 µM | > 100 µM | 37.5 µM | > 100 µM | – | 51.9 µM | 26.4 µM | > 100 µM | 21.3 µM | 11.6 µM | 7.93 µM | 37.4 µM | 14.4 µM | 63.9 µM | – | –
COC1C(CO)OC(n2c3ccccc3c3c4c(c5c6ccccc6[nH]c5c32)C(=O)NC4=O)C(O)C1OC(=O)C(N)CCCCN (configuration not stated) | 11.7 µM | – | > 39.5 µM | – | > 11 µM | 14.5 µM | > 18.2 µM | > 10.2 µM | – | 1.21 µM | 0.659 µM | 4.05 µM | 8.98 µM | 0.261 µM | 0.689 µM | 0.379 µM | 2.67 µM | 0.648 µM | – | –
C=C(C)[C@@H]1CCC[C@]2(C(=O)O)CC[C@]3(C)[C@@H](CC[C@@H]4[C@@]5(C)C/C(=C/c6ccncc6)C(=O)C(C)(C)[C@@H]5CC[C@]43C)[C@@H]12 | 13.9 µM | – | 4.31 µM | 3.5 µM | 5.85 µM | 91 µM | 4.58 µM | 13.8 µM | – | 3.34 µM | 4.03 µM | 45.1 µM | 1.85 µM | 1.84 µM | 2.24 µM | 3.81 µM | 2.1 µM | 3 µM | – | –
Nc1ccc2c(c1)CN1C(=O)c3ccccc3C1=N2 | > 70.3 µM | > 125 µM | > 125 µM | > 125 µM | > 125 µM | 108 µM | > 125 µM | > 125 µM | – | – | – | > 125 µM | 42.4 µM | – | – | 58.6 µM | – | 67.5 µM | – | –
O=C1c2cccc3cccc(c23)C(=O)N1CCCN1CCN(CCCN2C(=O)c3cccc4cccc(c34)C2=O)CC1 | > 100 µM | > 100 µM | > 100 µM | > 100 µM | > 100 µM | – | – | > 100 µM | > 100 µM | – | – | – | – | – | – | – | – | – | – | –
CC1(C)CC2(C)OC2C2(C1)N=NC(=Nc1ccccc1)O2 (configuration not stated) | 12.5 µM | – | 4.62 µM | 2.62 µM | 19.2 µM | 19.1 µM | 27.4 µM | 15.7 µM | – | 2.68 µM | 4.78 µM | 18.7 µM | 1.68 µM | 1.06 µM | 5.15 µM | 4.9 µM | 11.9 µM | 4.11 µM | – | –
N#CC(=C=[N-])[n+]1ccc(Cl)cc1 | 10.9 µM | 24.4 µM | 28.6 µM | 26.2 µM | 31.1 µM | 28.2 µM | – | 29.5 µM | 27.6 µM | – | – | – | – | – | – | – | – | – | – | –
COC(=O)C1CCC(=NC2c3ccccc3-c3ccccc32)N1 (configuration not stated) | > 100 µM | > 100 µM | > 100 µM | – | > 100 µM | > 100 µM | > 100 µM | > 100 µM | > 100 µM | – | – | – | – | – | – | – | – | – | – | –
CN(C)c1ccc(Sc2ccc3nc(N)nc(N)c3c2)cc1 | 16.8 µM | – | 14.2 µM | 13.6 µM | 2.13 µM | 14.3 µM | 15.5 µM | 4.91 µM | – | 2.03 µM | 0.793 µM | 12.1 µM | 0.429 µM | 0.3 µM | 0.363 µM | 0.604 µM | 2.76 µM | 1.09 µM | – | –
O=C1c2ccccc2C(=O)c2c1ccc1c3ccccc3n(Cc3ccccc3)c21 | > 100 µM | > 100 µM | > 100 µM | > 100 µM | > 100 µM | > 100 µM | – | – | > 100 µM | – | – | – | – | – | – | – | – | – | – | –
CCc1nc(N)nc(N)c1-c1ccc([N+](=O)[O-])c(Cl)c1 | > 100 µM | – | > 100 µM | > 100 µM | > 100 µM | > 100 µM | > 100 µM | > 100 µM | – | – | – | > 100 µM | – | – | – | – | – | – | – | –
CCC1(N2C(=O)c3c(F)c(F)c(F)c(F)c3C2=O)C(=O)NC(=O)N(c2ccccc2)C1=O (configuration not stated) | 4 µM | – | 7.14 µM | 2.73 µM | 19.4 µM | 16 µM | 10.6 µM | 17.1 µM | – | 1.95 µM | 4.87 µM | 17.9 µM | 2.32 µM | 1.18 µM | 4.46 µM | 3.66 µM | 2.79 µM | 5.06 µM | – | –
O=C1/C(=C/c2ccccc2)CN(C(=O)Oc2ccc([N+](=O)[O-])cc2)C/C1=C\c1ccccc1 | – | 4.83 µM and 3.45 µM | 5.63 µM | 1.26 µM and 3.36 µM | 6.74 µM and 3.51 µM | – | 7.65 µM | 8.79 µM | 5.41 µM and 2.9 µM | – | – | – | 2.74 µM | 1.57 µM | 1.71 µM | 3.11 µM | – | 6.29 µM | 1.2 µM | 1.41 µM
O=C(OCc1nc2ccc(Br)cc2c(=O)n1-c1ccccc1)c1ccccc1O | > 100 µM | > 100 µM | – | > 100 µM | > 100 µM | > 100 µM | > 100 µM | > 100 µM | > 100 µM | – | – | – | – | – | – | – | – | – | – | –
